The text below walks through data of paper PMC10669220, “In Vitro α-Glucosidase and α-Amylase Inhibition, Cytotoxicity and Free Radical Scavenging Profiling of the 6-Halogeno and Mixed 6,8-Dihalogenated 2-Aryl-4-methyl-1,2-dihydroquinazoline 3-Oxides” (Antioxidants, 2023).

The target of data set [1] is T1, α-Glucosidase type 1 from baker's yeast (Saccharomyces cerevisiae, UniProt P53341).
T1 construct: purchased Sigma Aldrich (Pty) Ltd. G5003
The experiment in a line: biochemical. The following applies: IC50 α-Glucosidase, mean ± SD, triplicate; tested at 1, 5, 10, 25, 50 µM.

A further data set addresses T2, human α-amylase (Homo sapiens, UniProt P04746).
T2 construct: purchased Abcam ab283391
T2 sequence (P04746 16-511): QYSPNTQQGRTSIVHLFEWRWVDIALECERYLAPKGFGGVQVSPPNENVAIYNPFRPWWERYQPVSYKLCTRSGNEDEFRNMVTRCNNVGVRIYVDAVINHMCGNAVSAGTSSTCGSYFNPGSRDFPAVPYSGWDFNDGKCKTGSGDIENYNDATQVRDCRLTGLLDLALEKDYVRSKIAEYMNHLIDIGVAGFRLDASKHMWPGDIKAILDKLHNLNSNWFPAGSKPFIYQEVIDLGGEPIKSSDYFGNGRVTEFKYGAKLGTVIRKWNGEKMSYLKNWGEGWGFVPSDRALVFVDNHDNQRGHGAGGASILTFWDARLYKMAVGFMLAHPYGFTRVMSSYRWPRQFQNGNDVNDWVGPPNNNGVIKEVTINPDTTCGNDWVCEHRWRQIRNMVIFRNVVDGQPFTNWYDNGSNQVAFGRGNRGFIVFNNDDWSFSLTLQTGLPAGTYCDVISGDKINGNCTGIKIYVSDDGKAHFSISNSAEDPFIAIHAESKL
The experiment in a line: α-amylase inhibitor screening kit assay. The data set is classed as biochemical. To be noted: mean ± SD, triplicate; tested at 1, 5, 10, 25, 50 µM. As to the method:
The α-amylase assay was performed in triplicate, using a 96-well plate following the procedure recommended by the manufacturer as outlined in the α-amylase inhibitor Screening Kit (Catalogue No. ab283391; Abcam). […] The average values obtained from the absorbance readings were used to determine the IC50 and standard deviation values in GraphPad prism from nonlinear regression dose–response curves.

The nature of data set [2]: DPPH radical scavenging assay. The following applies: mean ± SD; 45 min in the dark; 512 nm. In short, it runs like this: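 Compounds (0–50 µM, in DMSO) were mixed with 0.20 mM DPPH in methanol and kept in the dark for 45 min, with absorbance read at 512 nm. IC50 values were obtained by nonlinear regression of triplicate averaged readings.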
(In general: The DPPH test is a chemical assay of radical scavenging.)

A short description of data set [3]: NO free radical scavenging assay (sodium nitroprusside/Griess). To be noted: mean ± SD; sodium nitroprusside, Griess reagent, 550 nm. An outline of the steps:
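Test compound incubated with 10 mM sodium nitroprusside (stock) in phosphate buffer for 2.5 h at 25 °C, then Griess reagent added for 30 min. Triplicate absorbance means used for IC50 by nonlinear dose–response regression.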
(The Griess reaction detects nitrite, a stable product of nitric oxide.)

The test system of data set [4] is nitric oxide synthase (NOS). Kind of data set: Kinetic study on inhibitory activity of NOS. The class given is biochemical. The following applies: seven concentrations 1-10.0 μM; Figure 3; read-out: IC50 NOS inhibition (kinetic study). As to the method:
A nitric oxide synthase (NOS) assay was performed following the procedure recommended by the manufacturer as outlined in the screening kit (Catalogue No. EINO-100; EnzyChrom). Various concentrations (1, 2.5, 4.0, 5.5, 7.0, 8.5 and 10.0 µM) of the compounds 3i and the reference standard, DPI, were prepared. The enzyme solution (12.5 U/mL NOS, 10 uL), assay buffer (25 µL) and test samples (5 µL) were incubated at room temperature for 15 min. After pre-incubation, 10 µL of reaction mix was added and incubated at 37 °C for 60 min. A 200 µL quantity of NO detection reagent was added, the detection reaction was run at 37 °C for 60 min, and absorbance was determined at a wavelength of 540 nm using an Elisa plate reader (Varioskan Flash, ThermoFisher Scientific, Vantaa, Finland). The average of three readings was used to calculate the NOS percentage inhibition using the formula in Section 2.6.3

Data set [5] concerns the target superoxide dismutase (SOD). Kind of data set: Superoxide dismutase (SOD) inhibitory assay (SOD assay kit-WST). The class given is biochemical. The following applies: duplicate; 1-50 µM; 25 °C, 30 min; read-out: IC50 SOD inhibition. As to the method:
The antioxidant activity of the compounds 3a, 3c, 3f, 3i, 3l, 3n and 3p against superoxide radicals was assessed via enzymatic assay in vitro using the SOD assay kit-WST according to the manufacturer’s instructions (Sigma-Aldrich®). The reaction mixtures in the SOD kit were combined with 20 μL of working solution of the samples in a 96-well plate. Plates were gently shaken and then incubated at 25 °C for 30 min. The reference positive control, diphenyleneiodonium (DPI), and the compounds were tested at 01, 5, 10, 25 and 50 µM in duplicates. The inhibition activity of SOD on the reaction of […] generated the superoxide with a tetrazolium salt, which was then determined by measuring the absorbance of the mixtures at a wavelength of 450 nm using an Elisa plate reader (Varioskan Flash, ThermoFisher Scientific, Vantaa, Finland). The SOD activity values obtained used to calculate the percentage of inhibition. % SOD activity=ODx− ODy/ODx ×100% where ODx is the absorbance of the blank (untreated SOD) and ODy is the absorbance of the sample (treated SOD). All tests were performed in duplicate.

For data set [6], the system named is breast cancer (MCF-7) cell line. The experiment in a line: MTT cytotoxicity assay, MCF-7. The following applies: for Cell viability percentage, MCF-7: Table S2. (In general: Formazan colour is commonly taken as a measure of viable cells.)
Experimental: Cells were cultured in sterile Dulbecco’s Minimal Essential Medium (DMEM, Gibco) supplemented with 10% fetal bovine serum (FBS) and 1% penicillin-streptomycin solution. […] Cell counting was carried out using a handheld automated cell counter (Scapter 3.0™, Merck, Burlington, MA, USA) and seeded (1 × 10^4 cells/well) into a 96-well plate. After 24 h, the cells were treated with different concentrations (1, 5, 10, 25 and 50 µM) of the test compounds and reference standards prepared in DMEM. The MTT solution (20 μL) prepared in PBS (5 mg/mL) was added to all the wells, and the plates were incubated for 4 h, followed by 1 h incubation with 100 µL of dimethyl sulfoxide (DMSO) to dissolve the formazan crystals. Untreated cells and 5% DMSO were included in the experiment as negative controls. All experiments were performed in triplicate. The plates were read at 570 nm at a reference wavelength of 630 nm using an ELISA plate reader (Varioskan Flash, ThermoFisher Scientific, Vantaa, Finland). The percentage of cell viability was calculated using the following formula, Cell viability %=At/Ab×100 where At represents the absorbance value of test compound and Ab the absorbance value of the blank. […] The data were expressed as means ± SD.
Data set [7] can be described thus: MTT cytotoxicity assay, HEK293-T. To be noted: human, HEK293-T cells.

T1 sequence (P53341 whole entry): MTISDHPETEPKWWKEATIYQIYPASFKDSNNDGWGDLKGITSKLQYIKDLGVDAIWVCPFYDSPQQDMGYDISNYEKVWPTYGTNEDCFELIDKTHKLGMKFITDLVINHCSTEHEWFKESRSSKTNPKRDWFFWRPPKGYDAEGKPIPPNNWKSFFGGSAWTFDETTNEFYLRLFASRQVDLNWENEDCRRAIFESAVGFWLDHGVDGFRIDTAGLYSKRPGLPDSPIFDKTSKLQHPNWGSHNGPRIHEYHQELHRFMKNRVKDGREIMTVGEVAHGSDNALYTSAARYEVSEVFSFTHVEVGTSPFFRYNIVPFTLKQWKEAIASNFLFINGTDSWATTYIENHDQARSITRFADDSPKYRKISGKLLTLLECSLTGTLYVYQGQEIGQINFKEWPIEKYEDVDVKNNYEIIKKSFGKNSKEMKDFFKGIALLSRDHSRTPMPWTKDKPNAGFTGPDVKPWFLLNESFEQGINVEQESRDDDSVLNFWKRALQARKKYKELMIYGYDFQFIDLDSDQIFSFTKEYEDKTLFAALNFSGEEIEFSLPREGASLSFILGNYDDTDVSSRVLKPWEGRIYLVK

As a reminder, the IC50 is the concentration at which inhibition is half-maximal. Broadly, the melting point is the temperature, or range, at which the solid turns liquid. By viability is commonly meant a per cent measure of how many cells are alive, often set against a control. High values mean less harm to the cells, low ones more harm to the cells. As for `CC1=[N+]([O-])C(c2ccccc2)Nc2c(I)cc(Br)cc21` (stereo not drawn) [Compound 3i], the melting point fell in the range of 162 to 164 °C. The molecule further registered an IC50 in [1] of 1.01 ± 0.05 µM. The molecule also returned a half-maximal inhibitory concentration (IC50) on human α-amylase of 1.18 ± 0.06 µM. In [2], this molecule displayed a half-maximal inhibitory concentration (IC50) of 1.04 ± 0.077 µM. In data set [3], this molecule registered a 50% inhibitory concentration (IC50) of 61.26 ± 0.005 µM. In addition, in [4], the IC50 came out at 6.75 ± 0.002 µM. For the same molecule, in data set [5], the half-maximal inhibitory concentration (IC50) came to 15 ± 0.14 µM. Further, the “Cell viability percentage, MCF-7” value in [6] (Conc. 1 (µM per method)) is 24,1184%. Also, the “Cell viability percentage, MCF-7” value in data set [6] (Conc. 5 (µM per method)) was 22,006%. In addition, the “Cell viability percentage, MCF-7” value in data set [6] (Conc. 10 (µM per method)) is 22,1058%. The “Cell viability percentage, MCF-7” value in data set [6] (Conc. 25 (µM per method)) was 19,5775%. In data set [6] (Conc. 50 (µM per method)), the “Cell viability percentage, MCF-7” value is 18,1803%. Besides, the IC50 in data set [6] (Homo sapiens, MCF7, read-out: IC50 MCF-7) came out at 15.43 ± 0.06 µM. In addition, in [7], the viability at 1 µM is 34.9%, the viability at 5 µM amounted to 33.9%, the viability at 10 µM is 33.8% and the viability at 25 µM turned out to be 29.8%. Further, the viability at 50 µM in [7] came to 26.9%.
